Values joined by “and” are separate entries in the source; they are usually repeats but may differ in a detail not shown here. Identical values can stand only once. “Also recorded” adds a separate entry of the source. Like-named read-outs stand apart in the source and are kept apart here. No end group written: not given here.
What was measured:
Type in all cases: in vivo, Arabidopsis thaliana
[1] = test system: mik2-1 and mik2-2 mutant seedlings; conditions: for Root length (Fig. 3e): individual values, one per line; for root growth inhibition in mik2: mik2-1 and mik2-2, 10-day-old seedlings, 1 µM peptide
[2] = test system: Arabidopsis WT (Col-0) seedlings; conditions: in vivo
[3] = test system: Arabidopsis WT seedlings; experiment: ROS assay (luminol), WT seedlings; conditions: WT seedlings
Experimental: ROS burst was determined by a luminol-based assay. […] Then, ddH2O was replaced by 200 µL of reaction solution containing 50 µM of luminol, and 10 µg/mL of horseradish peroxidase (Sigma-Aldrich) supplemented with or without 100 nM or 1 μM peptide. Luminescence was measured immediately after adding the solution with a luminometer (Glomax 20/20n, Promega) with a one-second interval for 15 min. The total values of ROS production were indicated as means of the relative light units (RLUs).

[4] = test system: WRKY30, WRKY33 and CYP81F2 expression, WT seedlings; experiment: RT-qPCR of defense genes, WT
[5] = test system: WRKY30, WRKY33 and CYP81F2 expression, mik2 seedlings; experiment: RT-qPCR of defense genes, mik2 mutants
[6] = test system: MYB51 promoter, pMYB51::GUS seedling roots; experiment: Histochemical GUS staining, pMYB51::GUS; conditions: pMYB51::GUS seedlings, 1 µM, 3 h
Text: Stained samples were fixed with a 3:1 ethanol:acetic acid solution overnight and cleared by lactic acid and photographed with the Olympus SZX10 stereoscopic microscope equipped with DP27 camera.

[7] = test system: Arabidopsis WT seedling roots; experiment: Microscopy of root browning and root meristems, WT
[8] = test system: p35S::Aequorin seedlings; conditions: Ca^2+ and ROS bursts, 100 nM
[9] = test system: MPK3, MPK4 and MPK6 phosphorylation, WT seedlings; experiment: MAPK assay (α-pERK1/2 immunoblot), WT; conditions: Supplementary Fig. 3i
Experimental: Ten-day-old seedlings grown vertically on ½MS plates were transferred to ddH2O overnight for recovery. Then, ddH2O was replaced by 100 nM peptides for the indicated time.

Sequence | Root length (Fig. 3e) ([1]; mik2-1) | Root length (Fig. 3e) ([1]; mik2-2) | root growth inhibition [2] | MYB51 promoter activity in roots [6] | further results
GAPIVFTPPSSSCGGSP [STMP4, STMP4 peptide, which has an amino acid deletion in the conserved SxS motif] | 26.035 and 22.177 and 25.221 and 21.231 and 23.232 and 25.379 and 25.816 and 25.603 and 24.49 | 27.261 and 26.645 and 24.381 and 25.81 and 23.327 and 24.383 and 26.715 and 24.68 and 25.536 and 24.727 | – | – | –
KIAVGGSDSVRAHSK [SCOOP23, synthesized SCOOP peptide corresponding to the SxS motif] | 23.435 and 26.217 and 25.329 and 21.432 and 22.769 and 26.981 and 22.432 and 24.659 and 23.767 and 23.209 | 23.086 and 28.297 and 24.517 and 23.273 and 27.734 and 25.385 and 23.518 and 22.015 and 26.958 and 26.866 and 23.718 | inhibited root growth to various degrees | – | ROS production, total luminescence (Fig. 2h) ([3]; repeat 1): 2180098; ROS production, total luminescence (Fig. 2h) ([3]; repeat 2): 1251437; ROS production, total luminescence (Fig. 2h) ([3]; repeat 3): 1771537
KIGASGSNSGRAPSC [SCOOP20, synthesized SCOOP peptide corresponding to the SxS motif] | 24.471 and 25.145 and 23.922 and 25.251 and 22.928 and 25.223 and 20.452 and 22.037 and 23.256 and 20.819 | 26.727 and 24.181 and 24.271 and 27.062 and 26.494 and 25.973 and 25.806 and 29.152 and 24.029 and 26.34 and 22.997 | inhibited root growth to various degrees | – | ROS production, total luminescence (Fig. 2h) ([3]; repeat 1): 5262077; ROS production, total luminescence (Fig. 2h) ([3]; repeat 2): 3306520; ROS production, total luminescence (Fig. 2h) ([3]; repeat 3): 2873103
MGSGASGPVRSSQSSQAGGR [SCOOP12] | – | – | – | – | WRKY30, WRKY33 and CYP81F2 expression ([4]; 1 µM, 1 h, RT-qPCR): upregulation; CYP81F2 expression (Fig. 3i) ([4]; repeat 1): 29.17; CYP81F2 expression (Fig. 3i) ([4]; repeat 2): 38.18; CYP81F2 expression (Fig. 3i) ([4]; repeat 3): 74.97; CYP81F2 expression (Fig. 3i) ([4]; repeat 4): 101.98; CYP81F2 expression (Fig. 3i) ([5]; mik2-1, repeat 1): 5.42; CYP81F2 expression (Fig. 3i) ([5]; mik2-1, repeat 2): 5.95; CYP81F2 expression (Fig. 3i) ([5]; mik2-1, repeat 3): 2.79; CYP81F2 expression (Fig. 3i) ([5]; mik2-1, repeat 4): 3.39; CYP81F2 expression (Fig. 3i) ([5]; mik2-2, repeat 1): 6.08; CYP81F2 expression (Fig. 3i) ([5]; mik2-2, repeat 2): 9.84; CYP81F2 expression (Fig. 3i) ([5]; mik2-2, repeat 3): 9.95; CYP81F2 expression (Fig. 3i) ([5]; mik2-2, repeat 4): 12.98; WRKY30, WRKY33 and CYP81F2 expression ([5]; mik2 mutants, 1 µM, 1 h, RT-qPCR): abolished in mik2 mutants
MISEARPSKSKKGGGR [SCOOP6B, synthesized SCOOP peptide corresponding to the SxS motif] | 26.764 and 22.587 and 22.234 and 24.018 and 23.886 and 24.716 and 22.804 and 23.685 and 23.478 and 25.619 | 24.299 and 28.027 and 25.995 and 25.387 and 24.265 and 26.073 and 27.219 and 21.779 and 25.474 and 24.644 | inhibited root growth to various degrees | – | –
PPRGPGGSGSGHGGGR [AtSCOOPL, SCOOPL from Acidovorax temperans] | – | – | inactivity | inactivity | –
PPRGSGGPGGSGHGGGG [AaSCOOPL, SCOOPL from Acidovorax avenae] | – | – | inactivity | inactivity | –
PPRGSGGSGSGHGGGR [VeSCOOPL, SCOOPL from Verminephrobacter eiseniae] | – | – | induced growth inhibition | MYB51 promoter activation in roots | root growth inhibition in mik2 [1]: blocked in mik2-1
PPRGSGGSSSGHGGGR [CuSCOOPL, SCOOPL from a strain of Curvibacter sp] | – | – | induced growth inhibition | MYB51 promoter activation in roots | root growth inhibition in mik2 [1]: blocked in mik2-1
RGIVKPPIASFHSASPKDKGP [SCOOP4, synthesized SCOOP peptide corresponding to the SxS motif] | 22.155 and 26.016 and 23.373 and 23.51 and 24.985 and 25.73 and 26.362 and 20.719 and 23.733 and 21.154 | 26.627 and 26.926 and 29.205 and 26.909 and 23.654 and 24.824 and 23.191 and 25.56 and 22.857 and 22.903 and 27.736 | inhibited root growth to various degrees | – | –
RPPTPRVAVHSNSTKGKGP [SCOOP15B, synthesized SCOOP peptide corresponding to the SxS motif] | 22.469 and 26.152 and 25.889 and 25.356 and 27.954 and 26.487 and 24.47 and 23.738 | 21.779 and 26.908 and 23.024 and 23.497 and 28.191 and 26.08 and 24.094 and 28.257 and 26.467 and 23.539 and 26.537 | inhibited root growth to various degrees | – | –
RSMAPPIFVPPSTSHKGQGP [SCOOP14, synthesized SCOOP peptide corresponding to the SxS motif] | 24.089 and 21.232 and 24.336 and 25.505 and 25.175 and 27.845 and 26.169 and 23.827 and 21.884 and 25.844 | 25.38 and 24.419 and 26.016 and 27.911 and 26.615 and 21.291 and 24.947 and 21.905 and 24.43 and 24.226 | inhibited root growth to various degrees; also recorded: potent in inhibiting root growth | induced the promoter activities of MYB51 | root browning ([7]; WT seedlings, prolonged treatment): led to brown roots; root meristem distortion ([7]; WT, 5-day-old seedlings, 1 µM, 48 h, PI staining): distorted root meristems; ROS production, total luminescence (Fig. 2h) ([3]; repeat 1): 719851; ROS production, total luminescence (Fig. 2h) ([3]; repeat 2): 1351126; ROS production, total luminescence (Fig. 2h) ([3]; repeat 3): 841586; ROS production, SCOOP13 and 14 relative to other SCOOPs, and Ca^2+ bursts [8]: relatively weak activities for Ca^2+ and ROS bursts; MAPK activation in shoots and roots [9]: triggered the MAPK activation in both shoots and roots
SNIDFEGSISGQAGGG [SCOOP8, synthesized SCOOP peptide corresponding to the SxS motif] | 25.253 and 25.162 and 23.049 and 22.582 and 26.011 and 22.381 and 28.631 and 26.512 and 24.502 and 27.853 | 23.975 and 28.387 and 29.648 and 23.838 and 24.549 and 26.123 and 23.426 and 24.732 and 24.595 and 29.804 and 26.398 | inhibited root growth to various degrees | – | –
